Measured values reported in patent publication US20260374792A1, “PHENYL-FREE BISCATIONIC QUATERNARY PHOSPHONIUM COMPOUNDS AS ANTIMICROBIAL AGENTS” (priority 2022, published 2026).

What was measured:
E. faecalis (OG1RF) = test: MIC against E. faecalis; format: cell-based; conditions: Enterococcus faecalis, 72 h
Experimental: (§1) The term “minimum inhibitory concentration (MIC)” means the lowest concentration of an antimicrobial agent that will inhibit the visible growth of a microorganism after overnight incubation. MIC values against bacteria, for example, the Gram-positive Staphylococcus aureus and Enterococcus faecalis and the Gram-negative Escherichia coli and Pseudomonas aeruginosa were determined by standard methods. See also P. A. Wayne, Methods for Dilution Antimicrobial Tests for Bacteria that Grow Aerobically; Approved Standard, Ninth Edition, 2012, CLSI Document M07-A9, Vol. 32 No. 2.
(§2) Biological testing procedures were adapted from prior work by Melander and coworkers. For all biological assays, laboratory strains of methicillin-susceptible Staphylococcus aureus MSSA (SH1000), Staphylococcus aureus CA-MRSA (USA300-0114), Staphylococcus aureus HA-MRSA (ATCC 33591), Escherichia coli (MC4100), Enterococcus faecalis (OG1RF), Acinetobacter baumannii (ATCC 17978), were grown with shaking at 37 °C overnight from freezer stocks in 5 mL of the indicated media: SH1000, OG1RF, MC4100, USA300-0114, and ATCC 17978 were grown in BDTM Mueller-Hinton broth (MHB), whereas ATCC 33591 was grown in BDTM tryptic soy broth (TSB). The inoculum were then streaked onto Mueller-Hinton agar (MHA) plates and grown overnight at 37 °C. From the plates, single colonies were selected, diluted into 50 mL of fresh media and grown overnight at 37 °C with shaking for use in the MIC assays. Optical density (OD) measurements were obtained using a SpectraMax iD3 plate reader (Molecular Devices, United States).
(§3) Compounds were serially diluted two-fold from stock solutions (1.0 mM) to yield twelve 100 μL test concentrations, wherein the starting concentration of dimethyl sulfoxide (DMSO) was 2.5%. Overnight S. aureus, E. faecalis, E. coli, A. baumannii, USA300-0114 (CA-MRSA), and ATCC 33591 (HA-MRSA) cultures were diluted to ca. 10^6 CFU/mL in MHB or TSB and regrown to mid-exponential phase, as determined by optical density recorded at 600 nm (OD600). All cultures were then diluted again to ca. 10^6 CFU/mL and 100 μL were inoculated into each well of a U-bottom 96-well plate (Corning, 351177) containing 100 μL of compound solution. Plates were incubated statically at 37 °C for 72 hours upon which wells were evaluated visually for bacterial growth. The MIC was determined as the lowest concentration of compound resulting in no bacterial growth visible to the naked eye, based on the highest value in three independent experiments. Aqueous DMSO controls were conducted as appropriate for each compound.
(§4) The prepared library of biscationic amphiphilic compounds was assessed for performance as antibacterial disinfectants by determining the minimum inhibitory concentration (MIC) for each against a panel of bacteria. The bacteria selected for the study were chosen to evaluate the broad spectrum antimicrobial performance of the QPCs, and therefore, included both Gram-positive and Gram-negative bacterial strains, including those with known antimicrobial resistance mechanisms. These bacteria include the Gram-positive strains of methicillin-susceptible Staphylococcus aureus [MSSA; SH1000], community-acquired methicillin-resistant Staphylococcus aureus [CA-MRSA; USA 300-0114], hospital-acquired methicillin-resistant Staphylococcus aureus [HA-MRSA; ATCC 33591] and the […], Escherichia coli [MC4100], Acinetobacter baumannii [ATCC 17498] and Pseudomonas aeruginosa [PAO1].

CA-MRSA (USA300-0114) = test: MIC against community-acquired methicillin-resistant S. aureus (CA-MRSA); format: cell-based; conditions: Staphylococcus aureus, 72 h
Experimental: as §1, §2, §3, §4

MSSA (SH1000) = test: MIC against methicillin-susceptible S. aureus (MSSA); format: cell-based; conditions: Staphylococcus aureus; MSSA (SH1000); 72 hours, 37 °C; read-out: MIC
Experimental: as §1, §2, §3, §4

established biofilm = test: Biofilm eradication (MBEC) over the strains tested; format: cell-based; conditions: pegged-lid microtiter plate assay
Experimental: (§5) A regrowth assay was used to establish the MBEC of a compound to evaluate the antibiofilm activity.
Biofilm eradication experiments were performed using a pegged-lid microtiter plate assay to determine the MBEC values for compounds of interest, as previously described. […] Sci. Rep. 2017, 7, 2003; and Raval, Y. S., Flurin, L., Mohamed, A., Greenwood-Quaintance, K. E., Beyenal, H., & Patel, R. In Vitro Activity of Hydrogen Peroxide and Hypochlorous Acid Generated by Electrochemical Scaffolds Against Planktonic and Biofilm Bacteria. Antimicrob Agents Chemother. 2021, 65, e01966-20. Briefly, […] of mid-log phase culture diluted to ca. 10^6 CFU/mL in tryptic soy broth (TSB) was added to wells of plat-bottom 96-well plates (Thermo Scientific, 266120) and covered with 96-pegged lid (Thermo Scientific, 445497). […] MBEC values were determined as the lowest test concentration that resulted eradicated biofilm (i.e., wells displaying no turbidity in the final plate).
Pleased by the activity of the phosphonium compounds, the inventors sought to further investigate the antibacterial properties while comparing the effects of the heteroatom on activity. To do so, the inventors determined the minimum biofilm eradication concentration (MBEC) of bisQPC ^MeP2P-12,12 and analogous bisQAC 12(2)12 using a pegged-lid microtiter plate assay.

P. aeruginosa (PAO1) = test: MIC against P. aeruginosa; format: cell-based; conditions: Pseudomonas aeruginosa; P. aeruginosa (PAO1); 72 hours, 37 °C; read-out: MIC
Experimental: as §1, §2, §3, §4

P. aeruginosa = test: MBEC, biofilm eradication, P. aeruginosa; format: cell-based, Pseudomonas aeruginosa; conditions: 24 hours, 37 °C, TSB
Experimental: as §5
(§6) Biofilm eradication experiments were performed using a pegged-lid microtiter plate assay to determine the MBEC values for compounds of interest, as previously described. […] Sci. Rep. 2017, 7, 2003; and Raval, Y. S., Flurin, L., Mohamed, A., Greenwood-Quaintance, K. E., Beyenal, H., & Patel, R. In Vitro Activity of Hydrogen Peroxide and Hypochlorous Acid Generated by Electrochemical Scaffolds Against Planktonic and Biofilm Bacteria. Antimicrob Agents Chemother. 2021, 65, e01966-20. Briefly, […] of mid-log phase culture diluted to ca. 10^6 CFU/mL in tryptic soy broth (TSB) was added to wells of plat-bottom 96-well plates (Thermo Scientific, 266120) and covered with 96-pegged lid (Thermo Scientific, 445497). Plates were incubated to establish bacterial biofilms after incubation at 37 °C for 24 hours. The pegged lid was then removed, washed with PBS, and transferred to another 96-well plate containing 2-fold serial dilutions of the test compounds (the “challenge plate”). The total volume in each well was […], comprising of […] of compound diluted in water/DMSO, with a starting DMSO concentration of 2.5%, and […] of TSB. Plates were incubated statically at 37 °C for 24 hours. Next, the pegged lids were transferred to a fresh 96-well plate containing […] of TSB and incubated overnight at 37 °C. MBEC values were determined as the lowest test concentration that resulted eradicated biofilm (i.e., wells displaying no turbidity in the final plate).

E. faecalis = test: MBEC, biofilm eradication, E. faecalis; format: cell-based, Enterococcus faecalis; conditions: 24 hours, 37 °C, TSB
Experimental: as §5, §6

A. baumannii [1] = test: MIC against A. baumannii; format: cell-based; conditions: Acinetobacter baumannii, 72 h
Experimental: as §1, §2, §3, §4

HA-MRSA = test: MBEC, biofilm eradication, HA-MRSA; format: cell-based, Staphylococcus aureus; conditions: 24 hours, 37 °C, TSB
Experimental: as §5, §6

A. baumannii [2] = test: MBEC, biofilm eradication, A. baumannii; format: cell-based, Acinetobacter baumannii; conditions: 24 hours, 37 °C, TSB
Experimental: as §5, §6

E. coli (MC4100) = test: MIC against E. coli; format: cell-based; conditions: Escherichia coli, 72 hours, 37 °C
Experimental: as §1, §2, §3, §4

HA-MRSA (ATCC 33591) = test: MIC against hospital-acquired methicillin-resistant S. aureus (HA-MRSA); format: cell-based; conditions: Staphylococcus aureus, 72 h
Experimental: as §1, §2, §3, §4

Compound | MIC (E. faecalis (OG1RF)) | MIC (CA-MRSA (USA300-0114)) | MIC (MSSA (SH1000)) | ability to eradicate established biofilm (in words) (established biofilm) | MIC (P. aeruginosa (PAO1)) | MBEC (P. aeruginosa) | MBEC (E. faecalis) | MIC (A. baumannii [1]) | MBEC (HA-MRSA) | MBEC (A. baumannii [2]) | MIC (E. coli (MC4100)) | MIC (HA-MRSA (ATCC 33591))
CCCCCCCCCCCC[N+](C)(C)CC[N+](C)(C)CCCCCCCCCCCC [12(2)12, reference compound] | 8 µM | 2 µM | 2 µM | ability to eradicate established biofilm against three of the strains tested | 8 µM | >250 µM | 8 µM | 2 µM | 4 µM | 4 µM | 2 µM | 1 µM
CCCCCCCCCCCC[P+](C)(C)CC[P+](C)(C)CCCCCCCCCCC [^MeP2P-12,12] | 4 µM | 2 µM | 2 µM | ability to eradicate established biofilm against three of the strains tested | 8 µM | >250 µM | 8 µM | 8 µM | 8 µM | 8 µM | 4 µM | 1 µM
